# Test results as given in paper PMC9250534, “Synthesis and direct assay of large macrocycle diversities by combinatorial late-stage modification at picomole scale” (Nature Communications, 2022).
# Numbered stars: 1 amine (or outer) side, 2 acyl side, 3 side chain; on linkers, the order of the positions; unused ones are H or OH. Bridge positions count the residues as written; N and C are the ends. Square brackets hold non-standard residues; d marks the D form. Side chains are listed from the residue outwards. Peptide text beside a SMILES is read from it. * marks the point of attachment. Shikimoyl = O=C(C1=C[C@@H](O)[C@@H](O)[C@H](O)C1)*; Cyclopropanecarbonyl(1-CN) = N#CC1(C(=O)*)CC1; Pyrazinoyl(5-oxo-4H) = O=C(c1c[nH]c(=O)cn1)*; Isoxazole3carbonyl(5-Me) = Cc1cc(C(=O)*)no1; 1,2,3Thiadiazole5CO(4-Me) = Cc1nnsc1C(=O)*; Benzoyl(3-CF3) = O=C(c1cccc(C(F)(F)F)c1)*; Tetrahydropyran4carbonyl = O=C(C1CCOCC1)*; Isoorotoyl = O=C(c1c[nH]c(=O)[nH]c1=O)*; Benzoyl(3,5-F2) = O=C(c1cc(F)cc(F)c1)*; Nicotinoyl(6-OMe) = COc1ccc(C(=O)*)cn1; Indane2carbonyl = O=C(C1Cc2ccccc2C1)*; Acetyl(4-pyridyl) = O=C(Cc1ccncc1)*; Benzoyl(4-OMe) = COc1ccc(C(=O)*)cc1; 2Thenoyl(5-Cl) = O=C(c1ccc(Cl)s1)*; Benzoyl(4-Cl) = O=C(c1ccc(Cl)cc1)*; Cyclohexylacetyl = O=C(CC1CCCCC1)*; Pyrazinecarbonyl = O=C(c1cnccn1)*; Phenoxyacetyl = O=C(COc1ccccc1)*; X10 = O=C(c1cc(-c2ccco2)[nH]n1)*; Pentanoyl(4-Me) = CC(C)CCC(=O)*; X5 = O=C(c1cc2cc(Cl)ccc2[nH]1)*; X14 = O=C(C1(c2ccccc2)CCCCC1)*; X4 = O=C(c1cccc2c1OC(F)(F)O2)*; Cysteamide = C(CS[*:3])N[*:1]; X13 = O=C(c1ccc2[nH]cnc2c1)*; X3 = O=C(Cc1c[nH]c2ccccc12)*; X8 = O=C(c1ccc(=O)[nH]n1)*; X9 = COc1ccc(CC(=O)*)cc1OC; Ethoxyacetyl = CCOCC(=O)*; Isovaleryl = CC(C)CC(=O)*; X7 = CC(C)=CCCC(C)CC(=O)*; MeOSuc = COC(=O)CCC(=O)*; X1 = O=C(/C=C/c1ccccc1)*; 2Furoyl = O=C(c1ccco1)*; Dap = NC[C@H](N)C(=O)O; Inp = O=C(O)C1CCNCC1; Bz = O=C(c1ccccc1)*; Ms = CS(=O)(=O)*; Mpa = O=C(O)CCS
# Molecular target: MDM2 (Homo sapiens, UniProt Q00987)
# Sequence (Q00987 whole entry): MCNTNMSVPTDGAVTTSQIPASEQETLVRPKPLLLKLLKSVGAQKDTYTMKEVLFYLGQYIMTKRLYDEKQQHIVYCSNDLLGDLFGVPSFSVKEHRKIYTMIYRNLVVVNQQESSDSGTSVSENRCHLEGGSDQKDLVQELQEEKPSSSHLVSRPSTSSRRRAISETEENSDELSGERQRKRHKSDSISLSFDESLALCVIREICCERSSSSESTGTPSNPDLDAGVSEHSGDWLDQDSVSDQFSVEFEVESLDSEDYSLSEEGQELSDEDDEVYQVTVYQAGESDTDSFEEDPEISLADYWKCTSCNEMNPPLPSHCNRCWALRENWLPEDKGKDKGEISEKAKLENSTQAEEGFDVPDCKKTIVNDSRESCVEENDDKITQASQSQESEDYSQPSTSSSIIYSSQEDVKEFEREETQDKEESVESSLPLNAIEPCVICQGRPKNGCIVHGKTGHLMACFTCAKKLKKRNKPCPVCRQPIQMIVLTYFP
# Assay: MDM2 binding screen: displacement of fluorescent p53 peptide probe FP53 (fluorescence polarization)
# Settings: 10 µM macrocycle concentration; crude acylated macrocycle (scaffold Mpa-AA1-AA2-AA3 x carboxylic acid); p53-based fluorescent peptide, human MDM2
# In short: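 Macrocycle reaction products at a final 10 µM were tested for displacement of a p53-based fluorescent peptide from human MDM2. Fluorescence anisotropy (ex 485/em 535 nm) was read once per macrocycle at 25 °C.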
row,fraction fluorescent probe displaced,Structure (SMILES)
1,-0.005048,O=C(NC[C@@H]1NC(=O)[C@@H]2CCCN2C(=O)CCSSCCNC(=O)[C@H](Cc2ccccc2)NC1=O)c1ccccc1 [X-B1-D3-F + A1] ([Mpa]P[Dap](Bz)F-Cysteamide; disulfide 1-C)
2,0.08125,Cc1cc(C(=O)NC[C@@H]2NC(=O)[C@@H]3CCCN3C(=O)CCSSCCNC(=O)[C@H](Cc3ccccc3)NC2=O)no1 [X-B1-D3-F + A3] ([Mpa]P[Dap](Isoxazole3carbonyl(5-Me))F-Cysteamide; disulfide 1-C)
3,-0.003922,O=C(NC[C@@H]1NC(=O)[C@@H]2CCCN2C(=O)CCSSCCNC(=O)[C@H](Cc2ccccc2)NC1=O)c1ccc2[nH]cnc2c1 [X-B1-D3-F + A6] ([Mpa]P[Dap](X13)F-Cysteamide; disulfide 1-C)
4,0.02548,CC(=O)NC[C@@H]1NC(=O)[C@@H]2CCCN2C(=O)CCSSCCNC(=O)[C@H](Cc2ccccc2)NC1=O [X-B1-D3-F + A7] ([Mpa]P[Dap](Ac)F-Cysteamide; disulfide 1-C)
5,0.01535,COc1ccc(C(=O)NC[C@@H]2NC(=O)[C@@H]3CCCN3C(=O)CCSSCCNC(=O)[C@H](Cc3ccccc3)NC2=O)cn1 [X-B1-D3-F + A10] ([Mpa]P[Dap](Nicotinoyl(6-OMe))F-Cysteamide; disulfide 1-C)
6,0.08192,O=C(NC[C@@H]1NC(=O)[C@@H]2CCCN2C(=O)CCSSCCNC(=O)[C@H](Cc2ccccc2)NC1=O)c1ccc(Cl)s1 [X-B1-D3-F + A14] ([Mpa]P[Dap](2Thenoyl(5-Cl))F-Cysteamide; disulfide 1-C)
7,-0.04895,O=C(NC[C@@H]1NC(=O)[C@@H]2CCCN2C(=O)CCSSCCNC(=O)[C@H](Cc2ccccc2)NC1=O)c1ccco1 [X-B1-D3-F + A16] ([Mpa]P[Dap](2Furoyl)F-Cysteamide; disulfide 1-C)
8,0.09317,O=C(NC[C@@H]1NC(=O)[C@@H]2CCCN2C(=O)CCSSCCNC(=O)[C@H](Cc2ccccc2)NC1=O)c1cccc(C(F)(F)F)c1 [X-B1-D3-F + A18] ([Mpa]P[Dap](Benzoyl(3-CF3))F-Cysteamide; disulfide 1-C)
9,0.02873,"O=C(NC[C@@H]1NC(=O)[C@@H]2CCCN2C(=O)CCSSCCNC(=O)[C@H](Cc2ccccc2)NC1=O)c1cc(F)cc(F)c1 [X-B1-D3-F + A23] ([Mpa]P[Dap](Benzoyl(3,5-F2))F-Cysteamide; disulfide 1-C)"
10,0.2195,O=C(NC[C@@H]1NC(=O)[C@@H]2CCCN2C(=O)CCSSCCNC(=O)[C@H](Cc2ccccc2)NC1=O)c1ccc(Cl)cc1 [X-B1-D3-F + A25] ([Mpa]P[Dap](Benzoyl(4-Cl))F-Cysteamide; disulfide 1-C)
11,0.08617,O=C(NC[C@@H]1NC(=O)[C@@H]2CCCN2C(=O)CCSSCCNC(=O)[C@H](Cc2ccccc2)NC1=O)c1cc2cc(Cl)ccc2[nH]1 [X-B1-D3-F + A39] ([Mpa]P[Dap](X5)F-Cysteamide; disulfide 1-C)
12,-0.03153,COc1ccc(C(=O)NC[C@@H]2NC(=O)[C@@H]3CCCN3C(=O)CCSSCCNC(=O)[C@H](Cc3ccccc3)NC2=O)cc1 [X-B1-D3-F + A71] ([Mpa]P[Dap](Benzoyl(4-OMe))F-Cysteamide; disulfide 1-C)
13,0.07009,O=C(NC[C@@H]1NC(=O)[C@@H]2CCCN2C(=O)CCSSCCNC(=O)[C@H](Cc2ccccc2)NC1=O)c1cc(-c2ccco2)[nH]n1 [X-B1-D3-F + A79] ([Mpa]P[Dap](X10)F-Cysteamide; disulfide 1-C)
14,0.01272,O=C(NC[C@@H]1NC(=O)[C@@H]2CCCN2C(=O)CCSSCCNC(=O)[C@H](Cc2ccccc2)NC1=O)c1ccc(=O)[nH]n1 [X-B1-D3-F + A86] ([Mpa]P[Dap](X8)F-Cysteamide; disulfide 1-C)

# More lines, now with the values behind:
row,Structure (SMILES),fraction fluorescent probe displaced
1,O=C(NC[C@@H]1NC(=O)[C@@H]2CCCN2C(=O)CCSSCCNC(=O)[C@H](Cc2ccccc2)NC1=O)c1cnccn1 [X-B1-D3-F + A2] ([Mpa]P[Dap](Pyrazinecarbonyl)F-Cysteamide; disulfide 1-C),0.08617
2,CC(C)CC(=O)NC[C@@H]1NC(=O)[C@@H]2CCCN2C(=O)CCSSCCNC(=O)[C@H](Cc2ccccc2)NC1=O [X-B1-D3-F + A8] ([Mpa]P[Dap](Isovaleryl)F-Cysteamide; disulfide 1-C),-0.02974
3,O=C(NC[C@@H]1NC(=O)[C@@H]2CCCN2C(=O)CCSSCCNC(=O)[C@H](Cc2ccccc2)NC1=O)c1c[nH]c(=O)cn1 [X-B1-D3-F + A9] ([Mpa]P[Dap](Pyrazinoyl(5-oxo-4H))F-Cysteamide; disulfide 1-C),-0.0026
4,O=C(NC[C@@H]1NC(=O)[C@@H]2CCCN2C(=O)CCSSCCNC(=O)[C@H](Cc2ccccc2)NC1=O)c1c[nH]c(=O)[nH]c1=O [X-B1-D3-F + A11] ([Mpa]P[Dap](Isoorotoyl)F-Cysteamide; disulfide 1-C),0.04782
5,O=C(Cc1c[nH]c2ccccc12)NC[C@@H]1NC(=O)[C@@H]2CCCN2C(=O)CCSSCCNC(=O)[C@H](Cc2ccccc2)NC1=O [X-B1-D3-F + A12] ([Mpa]P[Dap](X3)F-Cysteamide; disulfide 1-C),0.03497
6,O=C(COc1ccccc1)NC[C@@H]1NC(=O)[C@@H]2CCCN2C(=O)CCSSCCNC(=O)[C@H](Cc2ccccc2)NC1=O [X-B1-D3-F + A13] ([Mpa]P[Dap](Phenoxyacetyl)F-Cysteamide; disulfide 1-C),0.1199
7,"Cc1nnsc1C(=O)NC[C@@H]1NC(=O)[C@@H]2CCCN2C(=O)CCSSCCNC(=O)[C@H](Cc2ccccc2)NC1=O [X-B1-D3-F + A15] ([Mpa]P[Dap](1,2,3Thiadiazole5CO(4-Me))F-Cysteamide; disulfide 1-C)",-0.03374
8,COc1ccc(CC(=O)NC[C@@H]2NC(=O)[C@@H]3CCCN3C(=O)CCSSCCNC(=O)[C@H](Cc3ccccc3)NC2=O)cc1OC [X-B1-D3-F + A37] ([Mpa]P[Dap](X9)F-Cysteamide; disulfide 1-C),0.02818
9,O=C(NC[C@@H]1NC(=O)[C@@H]2CCCN2C(=O)CCSSCCNC(=O)[C@H](Cc2ccccc2)NC1=O)c1cccc2c1OC(F)(F)O2 [X-B1-D3-F + A38] ([Mpa]P[Dap](X4)F-Cysteamide; disulfide 1-C),0.06653
10,O=C(NC[C@@H]1NC(=O)[C@@H]2CCCN2C(=O)CCSSCCNC(=O)[C@H](Cc2ccccc2)NC1=O)C1CCOCC1 [X-B1-D3-F + A44] ([Mpa]P[Dap](Tetrahydropyran4carbonyl)F-Cysteamide; disulfide 1-C),0.01122
11,N#CC1(C(=O)NC[C@@H]2NC(=O)[C@@H]3CCCN3C(=O)CCSSCCNC(=O)[C@H](Cc3ccccc3)NC2=O)CC1 [X-B1-D3-F + A56] ([Mpa]P[Dap](Cyclopropanecarbonyl(1-CN))F-Cysteamide; disulfide 1-C),0
12,CS(=O)(=O)N1CCC(C(=O)NC[C@@H]2NC(=O)[C@@H]3CCCN3C(=O)CCSSCCNC(=O)[C@H](Cc3ccccc3)NC2=O)CC1 [X-B1-D3-F + A57] ([Mpa]P[Dap]([Inp-Ms])F-Cysteamide; disulfide 1-C),-0.1145
13,O=C(CC1CCCCC1)NC[C@@H]1NC(=O)[C@@H]2CCCN2C(=O)CCSSCCNC(=O)[C@H](Cc2ccccc2)NC1=O [X-B1-D3-F + A66] ([Mpa]P[Dap](Cyclohexylacetyl)F-Cysteamide; disulfide 1-C),0.03478
14,CC(C)CCC(=O)NC[C@@H]1NC(=O)[C@@H]2CCCN2C(=O)CCSSCCNC(=O)[C@H](Cc2ccccc2)NC1=O [X-B1-D3-F + A68] ([Mpa]P[Dap](Pentanoyl(4-Me))F-Cysteamide; disulfide 1-C),-0.1369
15,O=C(Cc1ccncc1)NC[C@@H]1NC(=O)[C@@H]2CCCN2C(=O)CCSSCCNC(=O)[C@H](Cc2ccccc2)NC1=O [X-B1-D3-F + A70] ([Mpa]P[Dap](Acetyl(4-pyridyl))F-Cysteamide; disulfide 1-C),-0.04156
16,O=C(NC[C@@H]1NC(=O)[C@@H]2CCCN2C(=O)CCSSCCNC(=O)[C@H](Cc2ccccc2)NC1=O)C1=C[C@@H](O)[C@@H](O)[C@H](O)C1 [X-B1-D3-F + A72] ([Mpa]P[Dap](Shikimoyl)F-Cysteamide; disulfide 1-C),0.06911
17,O=C(NC[C@@H]1NC(=O)[C@@H]2CCCN2C(=O)CCSSCCNC(=O)[C@H](Cc2ccccc2)NC1=O)C1Cc2ccccc2C1 [X-B1-D3-F + A76] ([Mpa]P[Dap](Indane2carbonyl)F-Cysteamide; disulfide 1-C),0.03186
18,CC(C)=CCCC(C)CC(=O)NC[C@@H]1NC(=O)[C@@H]2CCCN2C(=O)CCSSCCNC(=O)[C@H](Cc2ccccc2)NC1=O (stereo partly drawn) [X-B1-D3-F + A84] ([Mpa]P[Dap](X7)F-Cysteamide; disulfide 1-C),0.05085
19,O=C(/C=C/c1ccccc1)NC[C@@H]1NC(=O)[C@@H]2CCCN2C(=O)CCSSCCNC(=O)[C@H](Cc2ccccc2)NC1=O [X-B1-D3-F + A91] ([Mpa]P[Dap](X1)F-Cysteamide; disulfide 1-C),0.08311
20,COC(=O)CCC(=O)NC[C@@H]1NC(=O)[C@@H]2CCCN2C(=O)CCSSCCNC(=O)[C@H](Cc2ccccc2)NC1=O [X-B1-D3-F + A93] ([Mpa]P[Dap](MeOSuc)F-Cysteamide; disulfide 1-C),0.05512
21,O=C1NCCSSCCC(=O)N2CCC[C@H]2C(=O)N[C@@H](CNC(=O)C2(c3ccccc3)CCCCC2)C(=O)N[C@H]1Cc1ccccc1 [X-B1-D3-F + A98] ([Mpa]P[Dap](X14)F-Cysteamide; disulfide 1-C),0.6432
22,CCOCC(=O)NC[C@@H]1NC(=O)[C@@H]2CCCN2C(=O)CCSSCCNC(=O)[C@H](Cc2ccccc2)NC1=O [X-B1-D3-F + A104] ([Mpa]P[Dap](Ethoxyacetyl)F-Cysteamide; disulfide 1-C),0.09201
